Results published in the NIST ThermoML archive (doi:10.1016/j.jct.2007.08.002).

Experiments:
[1] = molar heat capacity at constant pressure; conditions: 101.33 kPa, Small (less than 1 g) adiabatic calorimetry
[2] = Molar enthalpy of transition or fusion; conditions: Adiabatic calorimetry

NC12CC3CC(CC(C3)C1)C2 [tricyclo(3.3.1.1:3,7)decan-1-amine]
[1]
Conditions | molar heat capacity at constant pressure [J/K/mol]
5 K, Crystal 3 | 0.4688
10 K, Crystal 3 | 3.505
15 K, Crystal 3 | 9.163
20 K, Crystal 3 | 15.65
25 K, Crystal 3 | 21.75
30 K, Crystal 3 | 26.96
35 K, Crystal 3 | 31.21
40 K, Crystal 3 | 34.7
45 K, Crystal 3 | 37.68
50 K, Crystal 3 | 40.29
60 K, Crystal 3 | 44.98
70 K, Crystal 3 | 49.57
80 K, Crystal 3 | 54.53
90 K, Crystal 3 | 59.87
100 K, Crystal 3 | 65.39
110 K, Crystal 3 | 71.11
120 K, Crystal 3 | 77.06
130 K, Crystal 3 | 83.31
140 K, Crystal 3 | 89.8
150 K, Crystal 3 | 96.61
160 K, Crystal 3 | 103.8
170 K, Crystal 3 | 111.5
180 K, Crystal 3 | 119.5
190 K, Crystal 3 | 128
200 K, Crystal 3 | 136.9
210 K, Crystal 3 | 146.4
220 K, Crystal 3 | 156.5
230 K, Crystal 3 | 167.1
240 K, Crystal 3 | 178.3
241.4 K, Crystal 2 | 179.9
241.4 K, Crystal 3 | 179.9
250 K, Crystal 2 | 190.2
260 K, Crystal 2 | 202.7
270 K, Crystal 2 | 215.9
280 K, Crystal 2 | 230
284.6 K, Crystal 1 | 263.6
284.6 K, Crystal 2 | 236.6
290 K, Crystal 1 | 264.7
298.15 K, Crystal 1 | 266.4
300 K, Crystal 1 | 266.8
310 K, Crystal 1 | 268.9
320 K, Crystal 1 | 271.1
330 K, Crystal 1 | 273.1
340 K, Crystal 1 | 275.5
350 K, Crystal 1 | 278.5
360 K, Crystal 1 | 282.1
370 K, Crystal 1 | 286.4

[2]
Conditions | Molar enthalpy of transition or fusion [kJ/mol]
Crystal 2 | 5.309
Crystal 3 | 1.72
